The text below walks through data of BindingDB's records for patent US9527838 (Merck Sharp & Dohme Corp, 2016).

The target of the test is Hexokinase-4 (Human, UniProt P35557). Description: Glucokinase Activity Assay. As to the method: Recombinant human liver glucokinase was expressed as a FLAG fusion protein in E. coli, and purified on […] M2 AFFINITY GEL (Sigma). The assay was carried out at 30° C. in a 96-well plate. In the plate was distributed 69 μl each of assay buffer (25 mM Hepes Buffer: pH=7.2, 2 mM MgCl2, 1 mM ATP, 0.5 mM TNAD, 1 mM dithiothreitol), to which was added 1 μl of a DMSO solution of the compound or DMSO as control. Then, 20 μl of pre-ice-cooled enzyme mixture (FLAG-GK, 20 U/ml G6PDH) was distributed thereto, to which was added 10 μl of 25 mM glucose as substrate to initiate the reaction (final glucose concentration=2.5 mM). After starting the reaction, the absorbance at 405 nm was measured every 30 seconds for 10 minutes to evaluate the compound based on the initial increase for 5 minutes. FLAG-GK was added so that the increase of absorbance after 5 minutes fell between 0.05 to 0.1 in the presence of 1% DMSO.
Chain of Hexokinase-4 (P35557 whole entry, other chains not shown, the tested form may be a part): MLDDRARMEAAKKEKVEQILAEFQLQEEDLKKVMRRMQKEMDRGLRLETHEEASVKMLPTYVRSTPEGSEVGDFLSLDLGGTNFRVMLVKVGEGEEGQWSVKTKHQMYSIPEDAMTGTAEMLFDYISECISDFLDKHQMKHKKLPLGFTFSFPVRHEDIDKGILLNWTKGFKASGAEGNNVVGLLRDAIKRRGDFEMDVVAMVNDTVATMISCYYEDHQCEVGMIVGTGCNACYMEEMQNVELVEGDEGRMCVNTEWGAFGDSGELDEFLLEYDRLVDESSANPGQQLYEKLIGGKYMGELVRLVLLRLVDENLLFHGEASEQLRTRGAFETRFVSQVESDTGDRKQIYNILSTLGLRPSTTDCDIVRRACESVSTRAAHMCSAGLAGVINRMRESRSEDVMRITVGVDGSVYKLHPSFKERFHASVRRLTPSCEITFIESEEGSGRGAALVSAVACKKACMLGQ

In the case of `CCOC(=O)C(C)(C)CSc1cnc(NC(=O)c2nc(Sc3nncn3C)ccc2Sc2ccc(F)cc2)s1` [US9527838, 20], a half-maximal response (EC50) required 16.9 nM.
The same measure for `CCOC(=O)CSc1cnc(NC(=O)c2nc(Sc3ccc(F)cc3)ccc2Sc2ccc(F)cc2)s1` [US9527838, 27]: 386 nM; for `CCOC(=O)Cc1nc(NC(=O)c2nc(Sc3ccc(F)cc3)ccc2Sc2ccc(F)cc2)sc1Cl` [US9527838, 29]: 16000 nM.
